These results are taken from paper PMC6576746, “Rational discovery of dual-indication multi-target PDE/Kinase inhibitor for precision anti-cancer therapy using structural systems pharmacology” (PLoS Computational Biology, 2019).

What all share (test): biochemical
Common to all, as to set-up: DiscoverX KinomeScan competition binding assay across human kinases; per cent of control at 10 and 100 uM

One assay deals with MTOR (Homo sapiens, UniProt P42345). The note with it: competition binding, % of control; read-out: Percent Control (100 uM Levosimendan). The gist of the method:
(§1)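 Binding is expressed as %control, normalised between positive and negative control signals. The compound (levosimendan) was tested at 10 μM and 100 μM in the DiscoverX KinomeScan competition binding format against human kinases.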

The target of the next assay is MARK3 (Homo sapiens, UniProt P27448). To be noted: competition binding, % of control; read-out: Percent Control (100 uM Levosimendan). The gist of the method:
as §1

Another assay addresses PRKCH (Homo sapiens, UniProt P24723). The note with it: competition binding, % of control; read-out: Percent Control (100 uM Levosimendan). The gist of the method:
as §1

The next assay has as its target GAK (Homo sapiens, UniProt O14976). To be noted: competition binding, % of control. Summed up:
as §1

Another assay addresses FLT1 (Homo sapiens, UniProt P17948). The note with it: competition binding, % of control. Summed up:
as §1

The target in a further assay is PIK3CA(H1047L) (Homo sapiens, UniProt P42336, H1047L). To be noted: competition binding, % of control; read-out: Percent Control (100 uM Levosimendan). The gist of the method: as §1
PIK3CA(H1047L), sequence (P42336 whole entry H1047L): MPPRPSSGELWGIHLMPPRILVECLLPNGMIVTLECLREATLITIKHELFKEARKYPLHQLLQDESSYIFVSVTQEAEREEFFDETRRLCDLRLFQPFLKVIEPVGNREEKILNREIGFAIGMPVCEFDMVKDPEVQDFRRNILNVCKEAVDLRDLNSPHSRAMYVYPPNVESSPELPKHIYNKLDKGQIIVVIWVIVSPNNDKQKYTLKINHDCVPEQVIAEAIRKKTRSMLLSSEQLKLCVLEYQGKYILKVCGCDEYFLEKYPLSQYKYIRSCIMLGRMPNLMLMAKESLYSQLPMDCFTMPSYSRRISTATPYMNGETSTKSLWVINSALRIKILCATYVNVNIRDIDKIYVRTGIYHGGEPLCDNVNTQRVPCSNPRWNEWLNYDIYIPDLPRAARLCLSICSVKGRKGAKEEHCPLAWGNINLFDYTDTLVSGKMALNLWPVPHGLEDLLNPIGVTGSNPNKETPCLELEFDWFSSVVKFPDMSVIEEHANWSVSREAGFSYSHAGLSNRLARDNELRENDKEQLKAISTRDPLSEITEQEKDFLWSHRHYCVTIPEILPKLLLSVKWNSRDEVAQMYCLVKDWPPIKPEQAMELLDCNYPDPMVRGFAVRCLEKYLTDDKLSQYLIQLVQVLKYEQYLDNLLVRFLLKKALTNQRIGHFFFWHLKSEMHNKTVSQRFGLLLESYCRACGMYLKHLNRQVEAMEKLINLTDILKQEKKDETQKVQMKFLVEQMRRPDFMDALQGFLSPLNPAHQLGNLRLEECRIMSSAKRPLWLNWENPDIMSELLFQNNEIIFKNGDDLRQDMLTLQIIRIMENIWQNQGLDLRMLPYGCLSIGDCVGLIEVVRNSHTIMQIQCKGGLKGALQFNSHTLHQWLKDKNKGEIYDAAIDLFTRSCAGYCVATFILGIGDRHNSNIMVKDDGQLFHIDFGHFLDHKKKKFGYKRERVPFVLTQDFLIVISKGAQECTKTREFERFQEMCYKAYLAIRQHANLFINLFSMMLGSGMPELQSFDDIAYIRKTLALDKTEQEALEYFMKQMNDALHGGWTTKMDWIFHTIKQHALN
In the next assay the target is T1, SIK (Homo sapiens, UniProt P57059).
T1 construct: gene SIK1
To be noted: competition binding, % of control; read-out: Percent Control (100 uM Levosimendan). Summed up: as §1

The target in the next assay is WNK3 (Homo sapiens, UniProt Q9BYP7). To be noted: competition binding, % of control; read-out: Percent Control (100 uM Levosimendan). Summed up:
as §1

A further assay addresses FRK (Homo sapiens, UniProt P42685). The note with it: competition binding, % of control; read-out: Percent Control (100 uM Levosimendan). Summed up: as §1
The target of assay [1] is EGFR(L747-E749del, A750P) (Homo sapiens, UniProt P00533, A750P/DEL747-749). The note with it: competition binding, % of control; read-out: Percent Control (100 uM Levosimendan). Summed up: as §1
For assay [2], the target named is T2, RSK3(Kin.Dom.1-N-terminal) (Homo sapiens, UniProt Q15349).
T2 construct: gene RPS6KA2; Kin.Dom.1-N-terminal
The note with it: competition binding, % of control; read-out: Percent Control (100 uM Levosimendan). The gist of the method:
as §1

The target in a further assay is T3, MEK6 (Homo sapiens, UniProt P52564).
T3 construct: gene MAP2K6
The note with it: competition binding, % of control; read-out: Percent Control (100 uM Levosimendan). Summed up:
as §1

Another assay concerns the target T4, MLK3 (Homo sapiens, UniProt Q16584).
T4 construct: gene MAP3K11
The note with it: competition binding, % of control; read-out: Percent Control (100 uM Levosimendan). Summed up:
as §1

The next assay addresses TNNI3K (Homo sapiens, UniProt Q59H18). To be noted: competition binding, % of control; read-out: Percent Control (100 uM Levosimendan). Summed up: as §1
The target of another assay is T5, LZK (Homo sapiens, UniProt O43283).
T5 construct: gene MAP3K13
The note with it: competition binding, % of control; read-out: Percent Control (100 uM Levosimendan). Summed up:
as §1

The next assay has as its target TEC (Homo sapiens, UniProt P42680). The note with it: competition binding, % of control; read-out: Percent Control (100 uM Levosimendan). The gist of the method:
as §1

The target of a further assay is IRAK4 (Homo sapiens, UniProt Q9NWZ3). To be noted: competition binding, % of control; read-out: Percent Control (100 uM Levosimendan). Summed up:
as §1

A further assay deals with BRAF(V600E) (Homo sapiens, UniProt P15056, V600E). To be noted: competition binding, % of control; read-out: Percent Control (100 uM Levosimendan). Summed up: as §1
Another assay concerns the target FGFR4 (Homo sapiens, UniProt P22455). To be noted: competition binding, % of control; read-out: Percent Control (100 uM Levosimendan). Summed up: as §1
[3] abbreviates: read-out: Percent Control (10 uM Levosimendan).
The mark [4] stands for this setting: read-out: Percent Control (100 uM Levosimendan).

GAK, sequence (O14976 whole entry): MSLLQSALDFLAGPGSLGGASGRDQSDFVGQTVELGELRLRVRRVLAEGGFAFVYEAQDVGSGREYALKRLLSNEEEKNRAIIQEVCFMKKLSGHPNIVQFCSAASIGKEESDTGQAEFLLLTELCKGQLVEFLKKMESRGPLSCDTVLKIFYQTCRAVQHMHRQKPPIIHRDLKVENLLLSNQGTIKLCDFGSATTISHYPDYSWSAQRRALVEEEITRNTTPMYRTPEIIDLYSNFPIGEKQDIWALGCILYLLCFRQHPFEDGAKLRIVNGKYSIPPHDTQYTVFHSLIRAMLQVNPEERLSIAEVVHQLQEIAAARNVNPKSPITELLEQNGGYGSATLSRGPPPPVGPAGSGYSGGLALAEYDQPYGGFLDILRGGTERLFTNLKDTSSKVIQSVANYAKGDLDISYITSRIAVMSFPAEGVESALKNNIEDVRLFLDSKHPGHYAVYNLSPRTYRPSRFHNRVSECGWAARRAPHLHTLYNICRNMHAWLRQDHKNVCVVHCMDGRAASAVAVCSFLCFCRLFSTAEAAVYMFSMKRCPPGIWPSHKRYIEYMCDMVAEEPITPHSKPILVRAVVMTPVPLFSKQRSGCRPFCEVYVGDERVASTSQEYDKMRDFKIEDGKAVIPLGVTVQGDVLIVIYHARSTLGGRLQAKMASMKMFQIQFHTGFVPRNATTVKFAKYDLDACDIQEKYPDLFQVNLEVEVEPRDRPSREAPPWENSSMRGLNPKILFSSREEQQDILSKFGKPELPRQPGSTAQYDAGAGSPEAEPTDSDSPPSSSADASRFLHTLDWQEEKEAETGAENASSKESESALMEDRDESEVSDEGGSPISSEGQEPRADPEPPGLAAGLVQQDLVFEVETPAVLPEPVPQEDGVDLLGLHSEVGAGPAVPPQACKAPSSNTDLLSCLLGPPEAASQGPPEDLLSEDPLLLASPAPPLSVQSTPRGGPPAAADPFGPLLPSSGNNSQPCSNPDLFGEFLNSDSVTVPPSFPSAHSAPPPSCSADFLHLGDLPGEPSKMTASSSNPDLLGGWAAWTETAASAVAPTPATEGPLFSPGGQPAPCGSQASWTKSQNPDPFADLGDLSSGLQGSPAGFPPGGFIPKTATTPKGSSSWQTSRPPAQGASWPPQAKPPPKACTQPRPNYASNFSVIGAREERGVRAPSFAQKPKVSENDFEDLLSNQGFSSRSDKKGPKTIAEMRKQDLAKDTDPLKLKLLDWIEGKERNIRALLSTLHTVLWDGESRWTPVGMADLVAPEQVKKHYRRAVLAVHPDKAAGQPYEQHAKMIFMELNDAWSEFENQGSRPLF
FLT1, sequence (P17948 whole entry): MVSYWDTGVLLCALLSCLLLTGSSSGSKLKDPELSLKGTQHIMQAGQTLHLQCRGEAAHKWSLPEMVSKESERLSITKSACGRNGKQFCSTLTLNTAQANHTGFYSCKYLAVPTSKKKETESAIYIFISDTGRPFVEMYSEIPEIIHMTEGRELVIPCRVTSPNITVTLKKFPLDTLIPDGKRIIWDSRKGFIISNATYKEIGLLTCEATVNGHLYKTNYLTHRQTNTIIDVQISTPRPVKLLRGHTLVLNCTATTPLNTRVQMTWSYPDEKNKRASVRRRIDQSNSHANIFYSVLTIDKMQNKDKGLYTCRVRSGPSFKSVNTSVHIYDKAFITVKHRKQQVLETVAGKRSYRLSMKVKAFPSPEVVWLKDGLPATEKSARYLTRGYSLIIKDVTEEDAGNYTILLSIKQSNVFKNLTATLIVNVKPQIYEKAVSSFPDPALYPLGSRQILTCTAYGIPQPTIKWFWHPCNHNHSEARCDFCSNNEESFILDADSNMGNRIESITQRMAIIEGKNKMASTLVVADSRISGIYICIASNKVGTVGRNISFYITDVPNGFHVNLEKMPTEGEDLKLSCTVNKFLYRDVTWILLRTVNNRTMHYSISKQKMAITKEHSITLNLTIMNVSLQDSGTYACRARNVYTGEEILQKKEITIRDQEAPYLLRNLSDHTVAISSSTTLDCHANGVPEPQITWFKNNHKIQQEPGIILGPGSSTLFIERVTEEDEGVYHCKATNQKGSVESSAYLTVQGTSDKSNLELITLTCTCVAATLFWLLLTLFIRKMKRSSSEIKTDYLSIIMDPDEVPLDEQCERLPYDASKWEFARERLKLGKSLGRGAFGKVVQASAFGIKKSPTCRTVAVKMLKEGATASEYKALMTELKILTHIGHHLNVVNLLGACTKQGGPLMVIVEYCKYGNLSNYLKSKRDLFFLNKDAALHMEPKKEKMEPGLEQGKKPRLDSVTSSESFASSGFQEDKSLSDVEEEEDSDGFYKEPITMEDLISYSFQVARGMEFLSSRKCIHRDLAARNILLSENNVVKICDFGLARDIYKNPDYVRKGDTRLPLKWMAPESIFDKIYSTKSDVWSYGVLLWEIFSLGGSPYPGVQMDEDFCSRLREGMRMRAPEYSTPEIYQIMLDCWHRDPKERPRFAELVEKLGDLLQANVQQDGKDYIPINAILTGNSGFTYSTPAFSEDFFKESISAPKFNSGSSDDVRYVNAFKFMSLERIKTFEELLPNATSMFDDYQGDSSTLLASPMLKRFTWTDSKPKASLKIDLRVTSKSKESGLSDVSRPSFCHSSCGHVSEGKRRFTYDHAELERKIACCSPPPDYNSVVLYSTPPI
IRAK4, sequence (Q9NWZ3 whole entry): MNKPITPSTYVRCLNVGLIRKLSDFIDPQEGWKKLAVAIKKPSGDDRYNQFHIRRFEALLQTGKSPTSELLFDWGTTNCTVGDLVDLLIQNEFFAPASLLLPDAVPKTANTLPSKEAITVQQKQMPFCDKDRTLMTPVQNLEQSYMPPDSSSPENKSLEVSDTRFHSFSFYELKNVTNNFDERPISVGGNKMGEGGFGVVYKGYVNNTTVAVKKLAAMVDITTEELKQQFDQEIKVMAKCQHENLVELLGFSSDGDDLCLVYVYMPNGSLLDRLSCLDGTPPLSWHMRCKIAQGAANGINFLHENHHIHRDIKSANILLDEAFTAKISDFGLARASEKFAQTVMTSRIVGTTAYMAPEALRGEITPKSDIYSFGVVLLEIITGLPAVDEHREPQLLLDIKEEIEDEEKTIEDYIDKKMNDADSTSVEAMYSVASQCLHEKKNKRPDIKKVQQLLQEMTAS
PRKCH, sequence (P24723 whole entry): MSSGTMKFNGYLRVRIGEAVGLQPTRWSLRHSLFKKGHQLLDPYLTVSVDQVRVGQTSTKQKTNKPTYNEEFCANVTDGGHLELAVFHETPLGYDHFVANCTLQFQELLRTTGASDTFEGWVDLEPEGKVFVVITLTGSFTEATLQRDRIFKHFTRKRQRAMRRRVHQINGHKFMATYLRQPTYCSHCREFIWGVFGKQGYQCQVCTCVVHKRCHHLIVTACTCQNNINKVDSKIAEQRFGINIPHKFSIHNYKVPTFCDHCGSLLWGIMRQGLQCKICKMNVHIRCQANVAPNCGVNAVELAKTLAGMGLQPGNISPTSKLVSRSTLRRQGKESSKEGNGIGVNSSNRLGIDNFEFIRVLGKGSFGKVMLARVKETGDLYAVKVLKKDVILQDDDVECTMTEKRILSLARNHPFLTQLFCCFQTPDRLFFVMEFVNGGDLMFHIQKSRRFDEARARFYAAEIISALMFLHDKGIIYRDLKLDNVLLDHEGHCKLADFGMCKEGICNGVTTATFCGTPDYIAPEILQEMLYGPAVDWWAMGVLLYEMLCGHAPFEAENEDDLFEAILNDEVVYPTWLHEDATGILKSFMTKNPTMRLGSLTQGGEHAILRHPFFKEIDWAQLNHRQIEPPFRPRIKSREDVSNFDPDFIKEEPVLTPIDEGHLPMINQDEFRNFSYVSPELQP

Regarding `C[C@@H]1CC(=O)NN=C1c1ccc(NN=C(C#N)C#N)cc1` [levosimendan], the remaining binding at 100 µM on MTOR amounted to 100%; on MARK3 it was 95%; on PRKCH, 69%; on GAK (setting [4]), 16%; on FLT1 (setting [4]) it was 44%; at PIK3CA(H1047L) it was 100%. Moreover, the remaining binding at 100 µM on SIK was determined as 59%; at WNK3 it was 81%; at FRK, 100%; in assay [1], 64%; in assay [2], 100%; at MEK6, 100%. For the same compound, the remaining binding at 100 µM stood at 73% on MLK3; 95% on TNNI3K; 100% at LZK; 74% at TEC; 80% on IRAK4; 78% at BRAF(V600E). The remaining binding at 100 µM on FGFR4 is 92%. In addition, the values for the remaining binding at 10 µM on GAK (setting [3]) and on FLT1 (setting [3]) were 24% and 98%, respectively.
